Among the data in US11447465B2, “Pharmaceutical compounds for treatment of medical disorders” (Achillion Pharmaceuticals, Inc., priority 2017, dated 2022) are IC50 values, retold here.

In this test the target is Human Factor D (Homo sapiens (Human), UniProt P00746). Briefly: Human Factor D Assay. The class given is biochemical. On the procedure:
Human Factor D (purified from human serum, Complement Technology, Inc.) at 80 nM final concentration is incubated with test compound at various concentrations for 5 min at room temperature in 50 mM Tris, 1M NaCl, pH 7.5. A synthetic substrate Z-L-Lys-SBzl and DTNB (Ellman's reagent) are added to final concentrations of 100 μM each. Absorbance at 405 nm (A405) is recorded at 30 second intervals for 30 min using a microplate spectrophotometer. IC50 values are calculated by nonlinear regression of Complement Factor D reaction rates as a function of test compound concentration.

Setting [1] is: Table 5, Human Factor D 80 nM, substrate Z-L-Lys-SBzl, read-out: IC50 (Stars).
Where [2] appears, read: Table 6, Human Factor D 80 nM, substrate Z-L-Lys-SBzl, read-out: IC5 (Stars).

Where two headings read alike, the source gives them in different places.

Chain of Human Factor D (P00746 26-253): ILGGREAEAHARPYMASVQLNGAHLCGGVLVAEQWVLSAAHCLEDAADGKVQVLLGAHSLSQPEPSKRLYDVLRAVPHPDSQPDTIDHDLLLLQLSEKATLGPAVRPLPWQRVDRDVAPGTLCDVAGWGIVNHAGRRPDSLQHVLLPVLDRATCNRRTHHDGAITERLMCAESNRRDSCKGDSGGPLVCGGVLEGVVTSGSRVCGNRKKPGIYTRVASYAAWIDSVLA

Take `Cc1ccc(Br)nc1NC(=O)[C@@H]1C[C@@]2(CNC(=O)COCCOCCNC(=O)COCCOCCNC(=O)CC[C@H](NC(=O)CCCCCCCCCCCCCCCCC(=O)O)C(=O)O)C[C@H]2N1C(=O)Cn1nc(C(N)=O)c2ccc(C(=O)NS(=O)(=O)C3CC3)cc21` [Compound T-126, (S)-1-((1R,3S,5R)-3-((6-bromo-3-methylpyridin-2-yl)carbamoyl)-2-(2-(3-carbamoyl-6-((cyclopropylsulfonyl)carbamoyl)-1H-indazol-1-yl)acetyl)-2-azabicyclo[3.1.0]hexan-5-yl)-24-carboxy-3,12,21,26-tetraoxo-5,8,14,17-tetraoxa-2,11,20,25-tetraazatritetracontan-43-oic acid]: under “Table 7, read-out: IC5 (Stars)”, the IC50 was less than 1 µM.
Still for that read-out and setting: under `Cc1ccc(Br)nc1NC(=O)[C@@H]1C[C@@]2(C)C[C@H]2N1C(=O)Cc1ccc2[nH]nc(C#N)c2c1` [Compound T-94, (1R,3S,5R)-N-(6-bromo-3-methylpyridin-2-yl)-2-(2-(3-cyano-1H-indazol-5-yl)acetyl)-5-methyl-2-azabicyclo[3.1.0]hexane-3-carboxamide] stands more than 10 µM.
Take `CC(=O)c1nn(CC(=O)N2[C@H](C(=O)Nc3nc(Br)ccc3C)C[C@@]3(C)C[C@@H]23)c2ccc(NC(=O)C3CCCC3(F)F)cc12` (stereo partly drawn) [Compound T-27, (1R,3S,5R)-2-(2-(3-acetyl-5-(2,2-difluorocyclopentane-1-carboxamido)-1H-indazol-1-yl)acetyl)-N-(6-bromo-3-methylpyridin-2-yl)-5-methyl-2-azabicyclo[3.1.0]hexane-3-carboxamide]: under setting [1], the IC50 was less than 1 µM.
On to `CC(=O)c1nn(CC(=O)N2C[C@H](F)C[C@H]2C(=O)Nc2nc(Br)ccc2C)c2ccc(O[C@@H]3CO[C@H]4[C@@H]3OC[C@H]4OC(=O)[C@@H](N)C(C)C)cc12` [Compound T-58, (3R,3aR,6R,6aR)-6-((3-acetyl-1-(2-((2S,4R)-2-((6-bromo-3-methylpyridin-2-yl)carbamoyl)-4-fluoropyrrolidin-1-yl)-2-oxoethyl)-lH-indazol-5-yl)oxy)hexahydrofuro[3,2-b]furan-3-yl L-valinate], for which the IC50 under setting [2] is less than 1 µM.
Consider `COC(=O)c1cc(C(C)=O)cn1CC(=O)N1C[C@H](F)C[C@H]1C(=O)Nc1cccc(Br)n1` [Compound T-16, methyl 4-acetyl-1-(2-((2S,4R)-2-((6-bromopyridin-2-yl)carbamoyl)-4-fluoropyrrolidin-1-yl)-2-oxoethyl)-1H-pyrrole-2-carboxylate], for which the IC50 under setting [1] was in the range of 1 to 10 µM.
On the same count and under the same terms, in the case of `CC(=O)c1nn(CC(=O)N2[C@H](C(=O)Nc3nc(Br)ccc3C)C[C@@]3(CNC(=O)C4CCCC4(F)F)C[C@@H]23)c2c(C)cccc12` (stereo partly drawn) [Compound T-43, (1R,3S,5R)-2-(2-(3-acetyl-7-methyl-1H-indazol-1-yl)acetyl)-N-(6-bromo-3-methylpyridin-2-yl)-5-((2,2-difluorocyclopentane-1-carboxamido)methyl)-2-azabicyclo[3.1.0]hexane-3-carboxamide] it was less than 1 µM; in that of `CC(=O)c1cn(CC(=O)N2[C@H](C(=O)NCc3cccc(Cl)c3F)C[C@@]3(CN(C)C)C[C@@H]23)c2cc(P(C)(=O)O)ccc12` [Compound T-47, (3-acetyl-1-(2-((1R,3S,5R)-3-((3-chloro-2-fluorobenzyl)carbamoyl)-5-((dimethylamino)methyl)-2-azabicyclo[3.1.0]hexan-2-yl)-2-oxoethyl)-1H-indol-6-yl)(methyl)phosphinic acid], less than 1 µM.
For `COc1ncc(-c2cccc(CC(=O)N3[C@H](C(=O)Nc4nc(Br)ccc4C)C[C@@]4(C)C[C@@H]34)c2)cn1` [Compound T-95, (1R,3S,5R)-N-(6-bromo-3-methylpyridin-2-yl)-2-(2-(3-(2-methoxypyrimidin-5-yl)phenyl)acetyl)-5-methyl-2-azabicyclo[3.1.0]hexane-3-carboxamide], for the setting “Table 7, read-out: IC5 (Stars)”, the IC50 was more than 10 µM.
As for `Cc1ccc(Br)nc1NC(=O)[C@@H]1C[C@@]2(C)C[C@H]2N1C(=O)Cc1ccc2[nH]nc(C(=O)O)c2c1` [Compound T-158, 5-(2-((1R,3S,5R)-3-((6-bromo-3-methylpyridin-2-yl)carbamoyl)-5-methyl-2-azabicyclo[3.1.0]hexan-2-yl)-2-oxoethyl)-1H-indazole-3-carboxylic acid], the IC50 (Table 7, read-out: IC5 (Stars)) fell in the range of 1 to 10 µM.
On the same count and under the same terms, under `CC(=O)c1nn(CC(=O)N2[C@H](C(=O)Nc3nc(Br)ccc3C)C[C@@]3(C)C[C@@H]23)c2cc3sc(C)nc3cc12` [Compound T-84, (1R,3S,5R)-2-(2-(3-acetyl-6-methyl-1H-thiazolo[4,5-f]indazol-1-yl)acetyl)-N-(6-bromo-3-methylpyridin-2-yl)-5-methyl-2-azabicyclo[3.1.0]hexane-3-carboxamide] stands less than 1 µM; under `Cc1ncc(-c2cc(CC(=O)N3[C@H](C(=O)Nc4nc(Br)ccc4C)C[C@@]4(C)C[C@@H]34)cc(C(N)=O)c2)cn1` [Compound T-113, (1R,3S,5R)-N-(6-bromo-3-methylpyridin-2-yl)-2-(2-(3-carbamoyl-5-(2-methylpyrimidin-5-yl)phenyl)acetyl)-5-methyl-2-azabicyclo[3.1.0]hexane-3-carboxamide], 1 to 10 µM.
Still for that read-out and setting: in the case of `CC(=O)c1nn(CC(=O)N2[C@H](C(=O)Nc3nc(Br)ccc3C)C[C@@]3(C)C[C@@H]23)c2cc3nc(C)sc3cc12` [Compound T-103, (1R,3S,5R)-2-(2-(3-acetyl-6-methyl-1H-thiazolo[5,4-f]indazol-1-yl)acetyl)-N-(6-bromo-3-methylpyridin-2-yl)-5-methyl-2-azabicyclo[3.1.0]hexane-3-carboxamide] it was less than 1 µM.
Turning to `CC(=O)c1nn(CC(=O)N2[C@H](C(=O)Nc3nc(Br)ccc3C3CC3)C[C@@]3(C)C[C@@H]23)c2ccc(O[C@@H]3CO[C@H]4[C@@H]3OC[C@H]4O)cc12` [Compound T-51, (1R,3S,5R)-2-(2-(3-acetyl-5-(((3R,3aR,6R,6aR)-6-hydroxy-hexahydrofuro[3,2-b]furan-3-yl)oxy)-1H-indazol-1-yl)acetyl)-N-(6-bromo-3-cyclopropyl-pyridin-2-yl)-5-methyl-2-azabicyclo[3.1.0]hexane-3-carboxamide], the IC50 under setting [2] is less than 1 µM.
On to `CC(=O)c1cc(CC(=O)N2[C@H](C(=O)Nc3nc(Br)ccc3C)C[C@@]3(C)C[C@@H]23)cc(-c2cnc(C)nc2)c1` [Compound T-106, (1R,3S,5R)-2-(2-(3-acetyl-5-(2-methylpyrimidin-5-yl)phenyl)acetyl)-N-(6-bromo-3-methylpyridin-2-yl)-5-methyl-2-azabicyclo[3.1.0]hexane-3-carboxamide], for which the IC50 (Table 7, read-out: IC5 (Stars)) was less than 1 µM.
The same measure, in the same setting: under `Cc1ncc(-c2cc(CC(=O)N3C[C@H](F)C[C@H]3C(=O)Nc3cccc(-c4ccccc4Cl)c3F)cc(C(N)=O)c2)cn1` [Compound T-112, (2S,4R)-1-(2-(3-carbamoyl-5-(2-methylpyrimidin-5-yl)phenyl)acetyl)-N-(2′-chloro-2-fluoro-[1,1′-biphenyl]-3-yl)-4-fluoropyrrolidine-2-carboxamide] stands less than 1 µM; under `Cc1ncc(-c2cc(CC(=O)N3C[C@H](F)C[C@H]3C(=O)Nc3cccc(-c4ccccc4Cl)c3F)cc(-c3cnc(C)nc3)c2)cn1` [Compound T-104, (2S,4R)-1-(2-(3,5-bis(2-methylpyrimidin-5-yl)phenyl)acetyl)-N-(2′-chloro-2-fluoro-[1,1′-biphenyl]-3-yl)-4-fluoropyrrolidine-2-carboxamide], more than 10 µM.
Take `CC(=O)c1nn(CC(=O)N2C[C@H](F)C[C@H]2C(=O)NCC23C4C5C6C4C2C6C53)c2ccccc12` (stereo partly drawn) [Compound T-8, (2S,4R)-1-(2-(3-acetyl-1H-indazol-1-yl)acetyl)-N-(cuban-1-ylmethyl)-4-fluoropyrrolidine-2-carboxamide]: the IC50 under setting [1] was 1 to 10 µM.
Take `CC(=O)c1nn(CC(=O)N2[C@H](C(=O)NCc3cccc(Cl)c3F)C[C@@]3(C)C[C@@H]23)c2c(C)cc(NC(=O)N3CCCC(F)(F)C3)cc12` [Compound T-67, (1R,3S,5R)-2-(2-(3-acetyl-5-(3,3-difluoropiperidine-1-carboxamido)-7-methyl-1H-indazol-1-yl)acetyl)-N-(3-chloro-2-fluorobenzyl)-5-methyl-2-azabicyclo[3.l.0]hexane-3-carboxamide]: the IC50 (Table 7, read-out: IC5 (Stars)) was less than 1 µM.
Take `CC(=O)c1nn(CC(=O)N2[C@H]3C[C@@]3(CN(C)C)C[C@H]2C(=O)NCc2cccc(Cl)c2F)c2cc(P(C)(=O)O)ccc12` [Compound T-38, (3-acetyl-1-(2-((1S,3S,5S)-3-((3-chloro-2-fluorobenzyl)carbamoyl)-5-((dimethylamino)methyl)-2-azabicyclo[3.1.0]hexan-2-yl)-2-oxoethyl)-1H-indazol-6-yl)(methyl)phosphinic acid]: the IC50 under setting [1] fell in the range of 1 to 10 µM.
Take `CC(=O)c1nn(CC(=O)N2[C@H](C(=O)Nc3nc(Br)ccc3C)C[C@@]3(C)C[C@@H]23)c2ccc(OC(=O)NC3CC3)cc12` [Compound T-32, 3-acetyl-1-(2-((1R,3S,5R)-3-((6-bromo-3-methylpyridin-2-yl)carbamoyl)-5-methyl-2-azabicyclo[3.1.0]hexan-2-yl)-2-oxoethyl)-1H-indazol-5-yl cyclopropylcarbamate]: the IC50 under setting [1] was less than 1 µM.
`CC(=O)c1nn(CC(=O)N2C(C(=O)Nc3nc(Br)ccc3C)C[C@]3(C)C[C@H]23)c2ccc(OCCS(=O)(=O)CC3(C)COC3)cc12` (stereo partly drawn) [Compound T-56, (1S,5S)-2-(2-(3-acetyl-5-(2-(((3-methyloxetan-3-yl)methyl)sulfonyl)ethoxy)-1H-indazol-1-yl)acetyl)-N-(6-bromo-3-methylpyridin-2-yl)-5-methyl-2-azabicyclo[3.1.0]hexane-3-carboxamide]: the IC50 under setting [2] lay in the range of 1 to 10 µM.
